Test results taken from ChEMBL document CHEMBL4145457, “Design, synthesis and biological evaluation of novel pyridine-thiazolidinone derivatives as anticancer agents: Targeting human carbonic anhydrase IX” (Eur J Med Chem, 2018).

Experiments:
Carbonic anhydrase 2 = Carbonic anhydrase 2 (Homo sapiens, UniProt P00918); assay: Inhibition of human carbonic anhydrase 2 using 4-NPA as substrate after 3 mins by spectrophotometric analysis
Carbonic anhydrase 9 [1] = target: T1, Carbonic anhydrase 9 (Homo sapiens, UniProt Q16790); assay: Binding affinity to human carbonic anhydrase 9 by spectrofluorimetric analysis
Carbonic anhydrase 9 [2] = target: T1, Carbonic anhydrase 9; assay: Inhibition of human carbonic anhydrase 9 using 4-NPA as substrate after 3 mins by spectrophotometric analysis
MCF7 = assay: Cytotoxicity against human MCF7 cells after 48 hrs by MTT assay; type: functional, cell-based; conditions: MCF7, 48 h
HEK293 = assay: Cytotoxicity against human HEK293 cells after 48 hrs by MTT assay; type: cell-based; conditions: HEK293, 48 h
[3] = Ratio of IC50 for HEK293 cells to IC50 for human HepG2 cells; type: toxicity; conditions: HEK293 cells versus HepG2 cells, read-out: Ratio IC50
HepG2 = assay: cells; conditions: Homo sapiens, HepG2, 48 h
Description: Cytotoxicity against human HepG2 cells after 48 hrs by MTT assay

[4] = Ratio of IC50 for HEK293 cells to IC50 for human MCF7 cells; type: toxicity; conditions: HEK293 cells versus MCF7 cells, read-out: Ratio IC50

O=C1/C(=C\c2ccc(O)c(O)c2)S/C(=N/c2ccccc2)N1Cc1ccncc1
IC50 (Carbonic anhydrase 2): 27.2 µM
IC50 (Carbonic anhydrase 9 [1]): 2.32 µM
IC50 (Carbonic anhydrase 9 [2]): 1.84 µM
IC50 (MCF7): 12.4 µM
IC50 (HEK293): 230 µM
selectivity ratio [3]: 14.2
IC50 (HepG2): 16.2 µM
selectivity ratio [4]: 18.5

COc1ccc(/C=C2/S/C(=N/c3ccccc3)N(Cc3ccncc3)C2=O)cc1
IC50 (Carbonic anhydrase 9 [2]): 40.4 µM
IC50 (MCF7): 31.5 µM
IC50 (HEK293): 47.9 µM
selectivity ratio [3]: 2.5
IC50 (HepG2): 19.1 µM
selectivity ratio [4]: 1.5

O=C1CS/C(=N/c2ccccc2)N1Cc1ccncc1
IC50 (Carbonic anhydrase 9 [2]): 26.1 µM
IC50 (MCF7): 65.8 µM
IC50 (HEK293): 99.5 µM
selectivity ratio [3]: 3.8
IC50 (HepG2): 26 µM
selectivity ratio [4]: 1.5

O=C1/C(=C\c2ccc(Cl)cc2)S/C(=N/c2ccccc2)N1Cc1ccncc1
IC50 (Carbonic anhydrase 9 [2]): 40.2 µM
IC50 (MCF7): 54.9 µM
IC50 (HEK293): 42.3 µM
selectivity ratio [3]: 1.4
IC50 (HepG2): 28.8 µM
selectivity ratio [4]: 1.1

CN(C)c1ccc(/C=C2/S/C(=N/c3ccccc3)N(Cc3ccncc3)C2=O)cc1
IC50 (Carbonic anhydrase 9 [2]): 32.9 µM
IC50 (MCF7): 76.3 µM
IC50 (HEK293): 122 µM
selectivity ratio [3]: 2.3
IC50 (HepG2): 52.6 µM
selectivity ratio [4]: 1.6

S=C(NCc1ccncc1)Nc1ccccc1
IC50 (Carbonic anhydrase 9 [2]): 17.9 µM
IC50 (MCF7): 37.3 µM
IC50 (HEK293): 47.2 µM
selectivity ratio [3]: 2.4
IC50 (HepG2): 19.3 µM
selectivity ratio [4]: 1.2

CCOc1cc(/C=C2/S/C(=N/c3ccccc3)N(Cc3ccncc3)C2=O)ccc1O
IC50 (Carbonic anhydrase 9 [2]): 38.4 µM
IC50 (MCF7): 20.1 µM
IC50 (HEK293): 46.5 µM
selectivity ratio [3]: 2.2
IC50 (HepG2): 20.4 µM
selectivity ratio [4]: 2.3

Cc1ccc(/C=C2/S/C(=N/c3ccccc3)N(Cc3ccncc3)C2=O)cc1
IC50 (Carbonic anhydrase 9 [2]): 57.3 µM
IC50 (MCF7): 36.9 µM
IC50 (HEK293): 49.5 µM
selectivity ratio [3]: 2.5
IC50 (HepG2): 19.7 µM
selectivity ratio [4]: 1.3

O=C1/C(=C\c2ccc([N+](=O)[O-])cc2)S/C(=N/c2ccccc2)N1Cc1ccncc1
IC50 (Carbonic anhydrase 2): 14.4 µM
IC50 (Carbonic anhydrase 9 [1]): 11.2 µM
IC50 (Carbonic anhydrase 9 [2]): 1.61 µM
IC50 (MCF7): 13 µM
IC50 (HEK293): 250 µM
selectivity ratio [3]: 13.2
IC50 (HepG2): 18.9 µM
selectivity ratio [4]: 19.2

O=C1/C(=C\c2cccc(Cl)c2)S/C(=N/c2ccccc2)N1Cc1ccncc1
IC50 (Carbonic anhydrase 9 [2]): 43.5 µM
IC50 (MCF7): 29.8 µM
IC50 (HEK293): 71.8 µM
selectivity ratio [3]: 2.4
IC50 (HepG2): 28.9 µM
selectivity ratio [4]: 2.4

COc1cccc2c1C(=O)c1c(O)c3c(c(O)c1C2=O)C[C@@](O)(C(=O)CO)C[C@@H]3O[C@H]1C[C@H](N)[C@H](O)[C@H](C)O1 [DOXORUBICIN]
IC50 (HEK293): 148 µM

Cc1ccc(/C=C2/S/C(=N/c3ccccc3)N(Cc3ccncc3)C2=O)s1
IC50 (Carbonic anhydrase 9 [2]): 10 µM
IC50 (MCF7): 28.7 µM
IC50 (HEK293): 146 µM
selectivity ratio [3]: 6.3
IC50 (HepG2): 23.1 µM
selectivity ratio [4]: 5.1

COc1ccc(/C=C2/S/C(=N/c3ccccc3)N(Cc3ccncc3)C2=O)cc1OC
IC50 (Carbonic anhydrase 9 [2]): 20.9 µM
IC50 (MCF7): 80.7 µM
IC50 (HEK293): 171 µM
selectivity ratio [3]: 5.9
IC50 (HepG2): 28.9 µM
selectivity ratio [4]: 2.1

COc1ccc(OC)c(/C=C2/S/C(=N/c3ccccc3)N(Cc3ccncc3)C2=O)c1
IC50 (Carbonic anhydrase 9 [2]): 16.7 µM
IC50 (MCF7): 37 µM
IC50 (HEK293): 80.1 µM
selectivity ratio [3]: 2.2
IC50 (HepG2): 35.8 µM
selectivity ratio [4]: 2.1

O=C1/C(=C\c2ccccn2)S/C(=N/c2ccccc2)N1Cc1ccncc1
IC50 (Carbonic anhydrase 9 [2]): 6.64 µM
IC50 (MCF7): 21.1 µM
IC50 (HEK293): 161 µM
selectivity ratio [3]: 5.2
IC50 (HepG2): 31 µM
selectivity ratio [4]: 7.6

O=C1/C(=C\c2ccc(O)cc2)S/C(=N/c2ccccc2)N1Cc1ccncc1
IC50 (Carbonic anhydrase 9 [2]): 6.72 µM
IC50 (MCF7): 18.9 µM
IC50 (HEK293): 142 µM
selectivity ratio [3]: 12
IC50 (HepG2): 11.8 µM
selectivity ratio [4]: 7.5

O=C1/C(=C\c2ccc3c(c2)OCO3)S/C(=N/c2ccccc2)N1Cc1ccncc1
IC50 (Carbonic anhydrase 9 [2]): 58.4 µM
IC50 (MCF7): 35.2 µM
IC50 (HEK293): 64.8 µM
selectivity ratio [3]: 2.6
IC50 (HepG2): 24.4 µM
selectivity ratio [4]: 1.8

O=C1/C(=C\c2ccccc2)S/C(=N/c2ccccc2)N1Cc1ccncc1
IC50 (Carbonic anhydrase 9 [2]): 50.9 µM
IC50 (MCF7): 26.4 µM
IC50 (HEK293): 64.7 µM
selectivity ratio [3]: 2.5
IC50 (HepG2): 25.2 µM
selectivity ratio [4]: 2.4

O=C1/C(=C\c2cccc(O)c2)S/C(=N/c2ccccc2)N1Cc1ccncc1
IC50 (Carbonic anhydrase 9 [2]): 10.8 µM
IC50 (MCF7): 43.6 µM
IC50 (HEK293): 150 µM
selectivity ratio [3]: 8.5
IC50 (HepG2): 17.6 µM
selectivity ratio [4]: 3.4

COc1cc(/C=C2/S/C(=N/c3ccccc3)N(Cc3ccncc3)C2=O)ccc1O
IC50 (Carbonic anhydrase 9 [2]): 60.9 µM
IC50 (MCF7): 28 µM
IC50 (HEK293): 67.4 µM
selectivity ratio [3]: 2.3
IC50 (HepG2): 28.6 µM
selectivity ratio [4]: 2.4

CC(C)c1ccc(/C=C2/S/C(=N/c3ccccc3)N(Cc3ccncc3)C2=O)cc1
IC50 (Carbonic anhydrase 9 [2]): 63.1 µM
IC50 (MCF7): 53.3 µM
IC50 (HEK293): 137 µM
selectivity ratio [3]: 4.2
IC50 (HepG2): 32.3 µM
selectivity ratio [4]: 2.5
